Legend:
[1] = test system: recombinant NL4-3 virus (nef section replaced with Renilla luciferase gene) in MT-2 cells; assay: HIV cell culture assay (antiviral activity, luciferase readout); format: cell-based; settings: Renilla, NL43, MT-2 cells infected for 4-5 days with recombinant NL4-3 Renilla luciferase virus
Procedure, shortened: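 Compound activity was measured as reduction of luciferase in MT-2 cells infected for 4-5 days with serially diluted compound present. EC50 values were calculated with the median effect equation.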

[2] = Compound cytotoxicity, XTT-based colorimetric assay; format: cell-based; settings: human; uninfected MT2 cells, day 4, XTT; read-out: CC50
Procedure, shortened: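 CC50 derived from XTT colorimetric signal measured on day 4 in MT2 cells that were not infected. All other steps followed the antiviral assay protocol.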

## C[C@H](CN1C[C@H](F)C[C@H](F)C1)n1nc(NS(C)(=O)=O)c2c(Cl)ccc(-n3c([C@H](Cc4cc(F)cc(F)c4)NC(=O)Cn4nc(C(F)F)c5c4C(F)(F)[C@@H]4C[C@H]54)nc4nc(C5CCC(F)(F)CC5)cc(C5CC5)c4c3=O)c21 (atropisomer, axis not shown; (P)) [Example 716, N-[(1S)-1-[(3P)-3-{4-chloro-1-[(2R)-1-[(3R,5S)-3,5-difluoropiperidin-1-yl]propan-2-yl]-3-methanesulfonamido-1H-indazol-7-yl}-5-cyclopropyl-7-(4,4-difluorocyclohexyl)-4-oxo-3H,4H-pyrido[2,3-d]pyrimidin-2-yl]-2-(3,5-difluorophenyl)ethyl]-2-[(2S,4R)-9-(difluoromethyl)-5,5-difluoro-7,8-diazatricyclo[4.3.0.0^2,^4]nona-1(6),8-dien-7-yl]acetamide]
[1]
  EC50: 0.035 nM
[2]
  CC50 at 4 days: > 20 nM

## Cc1cc(C2(F)CCC(F)(F)CC2)nc2nc([C@H](Cc3cc(F)cc(F)c3)NC(=O)Cn3nc(C(F)F)c4c3C(F)(F)[C@@H]3C[C@H]43)n(-c3ccc(Cl)c4c(NS(C)(=O)=O)nn(C[C@H](C)N5CC(C)(C)OC(C)(C)C5)c34)c(=O)c12 (atropisomer, axis not shown; (P)) [Example 717, N-[(1S)-1-[(3P)-3-{4-chloro-3-methanesulfonamido-1-[(2S)-2-(2,2,6,6-tetramethylmorpholin-4-yl)propyl]-1H-indazol-7-yl}-5-methyl-4-oxo-7-(1,4,4-trifluorocyclohexyl)-3H,4H-pyrido[2,3-d]pyrimidin-2-yl]-2-(3,5-difluorophenyl)ethyl]-2-[(2S,4R)-9-(difluoromethyl)-5,5-difluoro-7,8-diazatricyclo[4.3.0.0^2,^4]nona-1(6),8-dien-7-yl]acetamide]
[1]
  EC50: 0.032 nM
[2]
  CC50 at 4 days: > 20 nM

## Cc1cc(C2(F)CCC(F)(F)CC2)nc2nc([C@H](Cc3cc(F)cc(F)c3)NC(=O)Cn3nc(C(F)F)c4c3C(F)(F)[C@@H]3C[C@H]43)n(-c3ccc(Cl)c4c(NS(C)(=O)=O)nn(C[C@@H](C)N5C[C@@H](C)O[C@@H](C)C5)c34)c(=O)c12 (atropisomer, axis not shown; (P)) [Example 720, N-[(1S)-1-[(3P)-3-{4-chloro-1-[(2R)-2-[(2R,6S)-2,6-dimethylmorpholin-4-yl]propyl]-3-methanesulfonamido-1H-indazol-7-yl}-5-methyl-4-oxo-7-(1,4,4-trifluorocyclohexyl)-3H,4H-pyrido[2,3-d]pyrimidin-2-yl]-2-(3,5-difluorophenyl)ethyl]-2-[(2S,4R)-9-(difluoromethyl)-5,5-difluoro-7,8-diazatricyclo[4.3.0.0^2,^4]nona-1(6),8-dien-7-yl]acetamide]
[1]
  EC50: 0.007 nM
[2]
  CC50 at 4 days: > 20 nM

## Cc1cc(C2(F)CCC(F)(F)CC2)nc2nc([C@H](Cc3cc(F)cc(F)c3)NC(=O)Cn3nc(C(F)F)c4c3C(F)(F)[C@@H]3C[C@H]43)n(-c3ccc(Cl)c4c(NS(C)(=O)=O)nn([C@H](C)CN5C[C@@H](C)O[C@@H](C)C5)c34)c(=O)c12 (atropisomer, axis not shown; (P)) [Example 729, N-[(1S)-1-[(3P)-3-{4-chloro-1-[(2R)-1-[(2R,6S)-2,6-dimethylmorpholin-4-yl]propan-2-yl]-3-methanesulfonamido-1H-indazol-7-yl}-5-methyl-4-oxo-7-(1,4,4-trifluorocyclohexyl)-3H,4H-pyrido[2,3-d]pyrimidin-2-yl]-2-(3,5-difluorophenyl)ethyl]-2-[(2S,4R)-9-(difluoromethyl)-5,5-difluoro-7,8-diazatricyclo[4.3.0.0^2,^4]nona-1(6),8-dien-7-yl]acetamide]
[1]
  EC50: 0.023 nM
[2]
  CC50 at 4 days: > 20 nM

## Cc1cc(C2CCC(F)(F)CC2)nc2nc([C@H](Cc3cc(F)cc(F)c3)NC(=O)Cn3nc(C(F)F)c4c3C(F)(F)[C@@H]3C[C@H]43)n(-c3ccc(Cl)c4c(NS(C)(=O)=O)nn([C@H](C)CN5CC(C)(C)OC(C)(C)C5)c34)c(=O)c12 (atropisomer, axis not shown; (P)) [Example 733, N-[(1S)-1-[(3P)-3-{4-chloro-3-methanesulfonamido-1-[(2R)-1-(2,2,6,6-tetramethylmorpholin-4-yl)propan-2-yl]-1H-indazol-7-yl}-7-(4,4-difluorocyclohexyl)-5-methyl-4-oxo-3H,4H-pyrido[2,3-d]pyrimidin-2-yl]-2-(3,5-difluorophenyl)ethyl]-2-[(2S,4R)-9-(difluoromethyl)-5,5-difluoro-7,8-diazatricyclo[4.3.0.0^2,^4]nona-1(6),8-dien-7-yl]acetamide]
[1]
  EC50: 0.037 nM
[2]
  CC50 at 4 days: > 20 nM

## C[C@@H](CN1C[C@H](F)C[C@H](F)C1)n1nc(NS(C)(=O)=O)c2c(Cl)ccc(-n3c([C@H](Cc4cc(F)cc(F)c4)NC(=O)Cn4nc(C(F)F)c5c4C(F)(F)[C@@H]4C[C@H]54)nc4nc(C5CCC(F)(F)CC5)cc(C5CC5)c4c3=O)c21 (atropisomer, axis not shown; (P)) [Example 735, N-[(1S)-1-[(3P)-3-{4-chloro-1-[(2S)-1-[(3R,5S)-3,5-difluoropiperidin-1-yl]propan-2-yl]-3-methanesulfonamido-1H-indazol-7-yl}-5-cyclopropyl-7-(4,4-difluorocyclohexyl)-4-oxo-3H, 4H-pyrido[2,3-d]pyrimidin-2-yl]-2-(3,5-difluorophenyl)ethyl]-2-[(2S,4R)-9-(difluoromethyl)-5,5-difluoro-7,8-diazatricyclo[4.3.0.0^2,^4]nona-1(6),8-dien-7-yl]acetamide]
[1]
  EC50: 0.018 nM
[2]
  CC50 at 4 days: > 20 nM

## Cc1cc(C2(F)CCC(F)(F)CC2)nc2nc([C@H](Cc3cc(F)cc(F)c3)NC(=O)Cn3nc(C(F)F)c4c3C(F)(F)[C@@H]3C[C@H]43)n(-c3ccc(Cl)c4c(NS(C)(=O)=O)nn(CCc5cccnc5)c34)c(=O)c12 (atropisomer, axis not shown; (P)) [Example 740, N-[(1S)-1-[(3P)-3-{4-chloro-3-methanesulfonamido-1-[2-(pyridin-3-yl)ethyl]-1H-indazol-7-yl}-5-methyl-4-oxo-7-(1,4,4-trifluorocyclohexyl)-3H,4H-pyrido[2,3-d]pyrimidin-2-yl]-2-(3,5-difluorophenyl)ethyl]-2-[(2S,4R)-9-(difluoromethyl)-5,5-difluoro-7,8-diazatricyclo[4.3.0.0^2,^4]nona-1(6),8-dien-7-yl]acetamide]
[1]
  EC50: 0.021 nM
[2]
  CC50 at 4 days: > 20 nM

## Cc1cc(C2CCC(F)(F)CC2)nc2nc([C@H](Cc3cc(F)cc(F)c3)NC(=O)Cn3nc(C(F)F)c4c3C(F)(F)[C@@H]3C[C@H]43)n(-c3ccc(Cl)c4c(NS(C)(=O)=O)nn([C@@H](C)CN5CC(C)(C)OC(C)(C)C5)c34)c(=O)c12 (atropisomer, axis not shown; (P)) [Example 742, N-[(1S)-1-[(3P)-3-{4-chloro-3-methanesulfonamido-1-[(2S)-1-(2,2,6,6-tetramethylmorpholin-4-yl)propan-2-yl]-1H-indazol-7-yl}-7-(4,4-difluorocyclohexyl)-5-methyl-4-oxo-3H,4H-pyrido[2,3-d]pyrimidin-2-yl]-2-(3,5-difluorophenyl)ethyl]-2-[(2S,4R)-9-(difluoromethyl)-5,5-difluoro-7,8-diazatricyclo[4.3.0.0^2,^4]nona-1(6),8-dien-7-yl]acetamide]
[1]
  EC50: 0.026 nM
[2]
  CC50 at 4 days: > 20 nM

## Cc1cc(C2(F)CCC(F)(F)CC2)nc2nc([C@H](Cc3cc(F)cc(F)c3)NC(=O)Cn3nc(C(F)F)c4c3C(F)(F)[C@@H]3C[C@H]43)n(-c3ccc(Cl)c4c(NS(C)(=O)=O)nn([C@H](C)C(=O)N5C[C@@H](C)O[C@@H](C)C5)c34)c(=O)c12 (atropisomer, axis not shown; (P)) [Example 743, N-[(1S)-1-[(3P)-3-{4-chloro-1-[(2R)-1-[(2R,6S)-2,6-dimethylmorpholin-4-yl]-1-oxopropan-2-yl]-3-methanesulfonamido-1H-indazol-7-yl}-5-methyl-4-oxo-7-(1,4,4-trifluorocyclohexyl)-3H,4H-pyrido[2,3-d]pyrimidin-2-yl]-2-(3,5-difluorophenyl)ethyl]-2-[(2S,4R)-9-(difluoromethyl)-5,5-difluoro-7,8-diazatricyclo[4.3.0.0^2,^4]nona-1(6),8-dien-7-yl]acetamide]
[1]
  EC50: 0.016 nM
[2]
  CC50 at 4 days: > 20 nM

## CC(=O)c1cc(C2CCC(F)(F)CC2)nc2nc([C@H](Cc3cc(F)cc(F)c3)NC(=O)Cn3nc(C(F)F)c4c3C(F)(F)[C@@H]3C[C@H]43)n(-c3ccc(Cl)c4c(NS(C)(=O)=O)nn(CCN5CCC(F)(F)CC5)c34)c(=O)c12 (atropisomer, axis not shown; (P)) [Example 746, N-[(1S)-1-[(3P)-5-acetyl-3-{4-chloro-1-[2-(4,4-difluoropiperidin-1-yl)ethyl]-3-methanesulfonamido-1H-indazol-7-yl}-7-(4,4-difluorocyclohexyl)-4-oxo-3H,4H-pyrido[2,3-d]pyrimidin-2-yl]-2-(3,5-difluorophenyl)ethyl]-2-[(2S,4R)-9-(difluoromethyl)-5,5-difluoro-7,8-diazatricyclo[4.3.0.0^2,4]nona-1(6),8-dien-7-yl]acetamide]
[1]
  EC50: 0.008 nM
[2]
  CC50 at 4 days: > 20 nM

## Cc1cc(C2(F)CCC(F)(F)CC2)nc2nc([C@H](Cc3cc(F)cc(F)c3)NC(=O)Cn3nc(C(F)F)c4c3C(F)(F)[C@@H]3C[C@H]43)n(-c3ccc(Cl)c4c(NS(C)(=O)=O)nn([C@@H](C)CN5C[C@@H](C)O[C@@H](C)C5)c34)c(=O)c12 (atropisomer, axis not shown; (P)) [Example 747, N-[(1S)-1-[(3P)-3-{4-chloro-1-[(2S)-1-[(2R,6S)-2,6-dimethylmorpholin-4-yl]propan-2-yl]-3-methanesulfonamido-1H-indazol-7-yl}-5-methyl-4-oxo-7-(1,4,4-trifluorocyclohexyl)-3H,4H-pyrido[2,3-d]pyrimidin-2-yl]-2-(3,5-difluorophenyl)ethyl]-2-[(2S,4R)-9-(difluoromethyl)-5,5-difluoro-7,8-diazatricyclo[4.3.0.0^2,^4]nona-1(6),8-dien-7-yl]acetamide]
[1]
  EC50: 0.017 nM
[2]
  CC50 at 4 days: > 20 nM
